Experimental data reported in PMC4182912 (Journal of medicinal chemistry, 2008).

Legend:
[1] = test system: P-glycoprotein (P-gp) efflux pumps; conditions: cited from earlier work
recombinant hCB1r = recombinant hCB1r (Homo sapiens, UniProt P21554); assay type: biochemical
Sequence of recombinant hCB1r (P21554 whole entry): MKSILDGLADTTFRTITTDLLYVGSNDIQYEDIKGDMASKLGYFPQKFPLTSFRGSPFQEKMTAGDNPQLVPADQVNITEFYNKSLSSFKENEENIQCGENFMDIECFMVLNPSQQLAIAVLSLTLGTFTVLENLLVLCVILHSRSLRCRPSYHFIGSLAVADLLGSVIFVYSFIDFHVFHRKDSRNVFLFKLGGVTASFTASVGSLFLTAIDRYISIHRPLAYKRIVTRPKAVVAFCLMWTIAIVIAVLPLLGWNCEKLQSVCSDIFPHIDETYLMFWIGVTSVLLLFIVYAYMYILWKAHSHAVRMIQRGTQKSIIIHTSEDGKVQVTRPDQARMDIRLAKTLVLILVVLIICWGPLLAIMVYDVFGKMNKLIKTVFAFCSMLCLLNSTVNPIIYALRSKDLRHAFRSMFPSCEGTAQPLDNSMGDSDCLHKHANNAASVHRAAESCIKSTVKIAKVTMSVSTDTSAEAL

SMILES	substrate behavior for P-gp efflux pumps [1]	eudismic ratio (CB1 receptor affinity, (-)- vs (+)-enantiomer) (recombinant hCB1r)
CN=C(NS(=O)(=O)c1ccc(Cl)cc1)N1C[C@H](c2ccccc2)C(c2ccc(Cl)cc2)=N1 [Ligand 3, (4S)-3-(4-chlorophenyl)-N-methyl-N’-[(4-chlorophenyl)sulfonyl]-4-phenyl-4,5-dihydro-1H-pyrazole-1-carboxamidine]	little to no substrate behavior	–
N#Cc1ccc(S(=O)(=O)N=C(N)N2CC(c3ccccc3)C(c3ccc(Cl)cc3)=N2)cc1 (stereo not drawn) [Ligand 12a, 3-(4-Chlorophenyl)-N’-[(4-cyanophenyl)sulfonyl]-4-phenyl-4,5-dihydro-1H-pyrazole-1-carboxamidine]	–	about 35
NC(=NS(=O)(=O)c1ccc(I)cc1)N1CC(c2ccccc2)C(c2ccc(Cl)cc2)=N1 (stereo not drawn) [Ligand 12c, 3-(4-Chlorophenyl)-N’-[(4-iodophenyl)sulfonyl]-4-phenyl-4,5-dihydro-1H-pyrazole-1-carboxamidine]	–	~56
